The target of this assay is Ras-related protein Rab-2A (Canis lupus familiaris) (UniProt P61105). Put plainly: wildtype Rab2 GTP-binding inhibitors, SAR follow-up, biochemical, multiplex dose response, Bodipy-FL-GTP, flow cytometry (AID 2033). The note with it: GST-Rab2 beads, Ki calculated from EC50.
Chain of Ras-related protein Rab-2A (Canis lupus familiaris) (P61105 whole entry, looked up): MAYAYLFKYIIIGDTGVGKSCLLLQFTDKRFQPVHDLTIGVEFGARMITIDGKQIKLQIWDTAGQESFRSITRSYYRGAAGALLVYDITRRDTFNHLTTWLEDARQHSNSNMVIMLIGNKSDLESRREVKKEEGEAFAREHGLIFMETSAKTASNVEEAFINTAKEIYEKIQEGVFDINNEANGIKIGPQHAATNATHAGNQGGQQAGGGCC
For orientation: Ki means the equilibrium dissociation constant of an inhibitor or competing ligand from its target. Consider `Cc1ccc(C)c(N2CCN(C(=O)CCc3nc(-c4ccccc4F)no3)CC2)c1`, for which the Ki is 60 nM. The figure for `Cc1ccc(C)c(N2CCN(C(=O)CCc3nc(-c4ccccc4)no3)CC2)c1` is 50 nM.

As for `COc1ccc(-c2noc(CCC(=O)N3CCN(c4ccccc4F)CC3)n2)cc1`, the Ki was 50 nM. To `COc1ccc(-c2noc(CCC(=O)N3CCN(c4ccccc4Br)CC3)n2)cc1` belongs 210 nM; to `COc1ccc(-c2cc(CCC(=O)N3CCN(c4cc(C)ccc4C)CC3)on2)cc1`, 160 nM; to `Cc1ccc(C)c(N2CCN(C(=O)CCc3nc(-c4cccc(Br)c4)no3)CC2)c1`, 230 nM. Consider `Cc1ccc(C)c(N2CCN(C(=O)CCc3nc(-c4cccc(Cl)c4)no3)CC2)c1`, for which the Ki was 180 nM. Regarding `COc1ccc(-c2noc(CCC(=O)N3CCN(c4ccc(C)cc4)CC3)n2)cc1`, the Ki is 50 nM.

As for `COc1ccc(-c2ccc(CCC(=O)N3CCN(c4cc(C)ccc4C)CC3)o2)cc1`, the Ki was 960 nM.

Regarding `COc1ccc(-c2noc(CCC(=O)N3CCN(c4ccccc4C)CC3)n2)cc1`, the Ki was 160 nM.

Take `COc1ccc(-c2ccc(CCC(=O)N3CCN(c4cc(C)ccc4C)CC3)[nH]2)cc1`: the Ki is 330 nM. The figure for `Cc1cccc(-c2noc(CCC(=O)N3CCN(c4cc(C)ccc4C)CC3)n2)c1` is 80 nM; for `COc1ccc(-c2noc(CCC(=O)N3CCC(c4cc(C)ccc4C)CC3)n2)cc1` it is 160 nM. To `Cc1ccc(C)c(N2CCN(C(=O)CCc3nc(-c4ccc(F)cc4)no3)CC2)c1` belongs 20 nM.

Take `COc1ccc(-c2noc(CCC(=O)N3CCN(c4cc(C)ccc4C)CC3)n2)cc1`: the Ki was 160 nM.

As for `COc1ccc(-c2noc(CCC(=O)N3CCN(c4ccccc4Cl)CC3)n2)cc1`, the Ki was 150 nM.

Consider `COc1ccc(-c2noc(CCC(=O)N3CCN(c4cccc(OC)c4)CC3)n2)cc1`, for which the Ki was 410 nM. To `Cc1ccc(C)c(N2CCN(C(=O)CCc3nc(-c4ccc(Cl)cc4)no3)CC2)c1` belongs 110 nM. To `Cc1ccc(C)c(N2CCN(C(=O)CCc3nc(-c4ccc(Br)cc4)no3)CC2)c1` belongs 190 nM. As for `COc1ccc(-c2noc(CCC(=O)N3CCN(c4ccccc4C(F)(F)F)CC3)n2)cc1`, the Ki was 130 nM. Take `Cc1ccc(-c2noc(CCC(=O)N3CCN(c4cc(C)ccc4C)CC3)n2)cc1`: the Ki was 260 nM. The figure for `COc1ccc(-c2ccc(CCC(=O)N3CCN(c4cc(C)ccc4C)CC3)s2)cc1` is 160 nM. The figure for `COc1ccc(-c2noc(CCC(=O)N3CCN(c4ccccc4OC)CC3)n2)cc1` is 80 nM; for `Cc1ccc(C)c(N2CCN(C(=O)CCc3nc(-c4ccccc4Br)no3)CC2)c1` it is 200 nM; for `Cc1ccc(C)c(N2CCN(C(=O)CCc3nc(-c4ccccc4C)no3)CC2)c1` it is 110 nM. The figure for `COc1ccc(-c2noc(CCC(=O)N3CCN(c4cccc(Cl)c4)CC3)n2)cc1` is 540 nM; for `COc1cccc(-c2noc(CCC(=O)N3CCN(c4cc(C)ccc4C)CC3)n2)c1` it is 250 nM.

Regarding `COc1ccc(-c2noc(CCCC(=O)N3CCN(c4cc(C)ccc4C)CC3)n2)cc1`, the Ki is 1030 nM.

For `COc1ccc(-c2noc(CCC(=O)N3CCN(c4cccc(C)c4C)CC3)n2)cc1`, the Ki is 150 nM.

These data come from PubChem BioAssay AID2033 (NMMLSC, 2009).
